Data on 17 compounds can be found in patent publication US20240025849A1 (MAX DELBRÜCK-CENTRUM FÜR MOLEKULARE MEDIZIN IN DER …, priority 2020, published 2024).

The subject of this assay is primary cultured neonatal microglia. Put plainly: LPS induced NO release, Griess assay, laboratory scaled setup.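 On active: compounds at or above the IC50 cutoff were called inactive.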 The assay is classed as cell-based, mouse. To be noted: for IC50: Mus musculus, Microglia. As to the method:
Primary cultured neonatal microglia. For preparation of cultured neonatal microglia, P0-P3 mice were used. 10 brains were extracted, meninges and cerebellum were removed and put on ice with Hank's balanced salt solution (HBSS). The dissected brains were washed 3 times before adding 400 μL trypsin (0.1 mg/L) and DNAse (5 μg/L) in phosphate buffered saline (PBS). After 2 min of incubation with this solution, the reaction was blocked by adding plain medium. After removal of the medium, 1 mg DNAse was added and the cells were mechanically dissociated, with a Pasteur pipette followed by a glass pipette. The cells were centrifuged for 10 min at 129 g at 4° C. The supernatant was discarded. The pellet was resuspended in plain medium and plated (2.5 brains/flask) in Poly-L-Lysine coated flasks. The cells were washed after 2 days with PBS and incubated for another 7 days in plain medium. Afterwards the medium was replaced by plain medium with 33% L929 conditioned medium. After 2 days, cells were harvested by shaking them for 30 min at 150 rpm. The supernatant was centrifuged for 10 min at 129 g at 4° C. The cells were plated into a 96 well plate (100 000 cells/well, 200 μL medium per well). This procedure could be repeated 2 times with a 2 day interval.
Griess assay. Cells were seeded according to the protocols described above, after compounds and stimuli were added, 100 μl of supernatant was transferred into a new 96 well plate and 100 μl freshly mixed Griess reagent were added. Griess reagent was composed of reagent A (100 mg Naphthylethylene in 50 ml aqua dest.) and reagent B (1 g Sulfanilamide, […] H3PO4 (85%) in 44 mL aqua dest.) mixed 1:1. The solution was carefully mixed and the absorbance was determined in a microplate reader at a wavelength of 550 nm.
Dissolved sodium nitrite in plain medium served as a standard. Total amount of nitrite was calculated by a linear regression of the standard curve.
The activity of the compounds listed in column 1 of Table 1 as inhibitors of NO production was compared in murine primary cultured neonatal microglia as described above.

[1] abbreviates: inhibitors of NO production, murine primary cultured neonatal microglia, read-out: IC50.
Setting [2] is: inhibitors of NO production, murine primary cultured neonatal microglia, read-out: activity class (IC50).
Where [3] appears, read: inhibitors of NO production, murine primary cultured neonatal microglia.

Where two headings read alike, the source gives them in different places.

As to `COc1ccc(NC(=O)[C@@H](NC(=O)[C@@H]2CCCN2C(=O)CCC2CCCC2)c2ccc(OC)cc2)cc1` [Compound 5, (S)-1-(3-cyclopentylpropanoyl)-N—((S)-1-(4-methoxyphenyl)-2-((4-methoxyphenyl)amino)-2-oxoethyl)pyrrolidine-2-carboxamide], the IC50 was 16.7 nM under setting [1] and below 50 nM under setting [2]. The active entry under setting [3] was “YES”.

Take `COc1ccc(NC(=O)[C@@H](NC(=O)[C@@H]2CCCN2C(=O)CCC2CCCCC2)c2ccc(OC)cc2)cc1` [Compound 6, (S)-1-(3-cyclohexylpropanoyl)-N—((S)-1-(4-methoxyphenyl)-2-((4-methoxyphenyl)amino)-2-oxoethyl)pyrrolidine-2-carboxamide]: the half-maximal inhibitory concentration (IC50) by setting is: under setting [1], 20.4 nM; under setting [2], below 50 nM. Further, the active entry under setting [3] is given as “YES”.

Take `COc1ccc(NC(=O)[C@@H](NC(=O)[C@@H]2CCCN2C(=O)CCCC2CCCCC2)c2ccc(OC)cc2)cc1` [Compound 7]: the concentration for half-maximal inhibition (IC50) under setting [1] amounted to 44.9 nM and the IC50 under setting [2] is below 50 nM. In addition, the active result under setting [3] is on record as “YES”.

Consider `COc1ccc(NC(=O)[C@@H](NC(=O)[C@@H]2CCCN2C(=O)CCC2CCCCC2)c2ccc(OCCOCCOCCOCCOCCOCCNC(=O)CCCC[C@@H]3SC[C@@H]4NC(=O)N[C@@H]43)cc2)cc1` [Compound 8, (S)-1-(3-cyclohexylpropanoyl)-N—((S)-2-((4-methoxyphenyl)amino)-2-oxo-1-(4-((19-oxo-23-((3aS,4S,6aR)-2-oxohexahydro-1H-thieno[3,4-d]imidazol-4-yl)-3,6,9,12,15-pentaoxa-18-azatricosyl)oxy)phenyl)ethyl)pyrrolidine-2-carboxamide], for which the concentration for half-maximal inhibition (IC50) under setting [1] is 8.37 nM and the half-maximal inhibitory concentration (IC50) under setting [2] was below 50 nM. Besides, the active result under setting [3] was “YES”.

For `COc1ccc(NC(=O)[C@@H](NC(=O)[C@@H]2CCCN2C(=O)CCc2ccc(F)cc2)c2ccc(OC)cc2)cc1` [Compound 9, (S)-1-(3-(4-fluorophenyl)propanoyl)-N—((S)-1-(4-methoxyphenyl)-2-((4-methoxyphenyl)amino)-2-oxoethyl)pyrrolidine-2-carboxamide], the IC50 under setting [1] was 54.8 nM and the IC50 under setting [2] is below 100 nM. For the same compound, the active result under setting [3] was “YES”.

As to `COc1ccc([C@H](NC(=O)[C@@H]2CCCN2C(=O)OCc2ccccc2)C(=O)Nc2cc3n(n2)CCCC3)cc1` [Compound 10, benzyl(S)-2-(((S)-1-(4-methoxyphenyl)-2-oxo-2-((4,5,6,7-tetrahydropyrazolo[1,5-a]pyridin-2-yl)amino)ethyl)carbamoyl)pyrrolidine-1-carboxylate], the IC50 by setting is: under setting [1], 65.5 nM; under setting [2], below 100 nM. In addition, the active result under setting [3] is on record as “YES”.

For the compound `COc1ccc(NC(=O)[C@@H](NC(=O)[C@@H]2CCCN2C(=O)COc2ccccc2)c2ccc(OC)cc2)cc1` [Compound 11, (S)—N—((S)-1-(4-methoxyphenyl)-2-((4-methoxyphenyl)amino)-2-oxoethyl)-1-(2-phenoxyacetyl)pyrrolidine-2-carboxamide], the IC50 reads like this: under setting [1], 71.7 nM; under setting [2], below 100 nM. In addition, under setting [3], the active entry is given as “YES”.

In the case of `COc1ccc(NC(=O)[C@@H](NC(=O)[C@@H]2CCCN2C(=O)Cc2ccccc2)c2ccc(OC)cc2)cc1` [Compound 12, (S)—N—((S)-1-(4-methoxyphenyl)-2-((4-methoxyphenyl)amino)-2-oxoethyl)-1-(2-phenylacetyl)pyrrolidine-2-carboxamide], the IC50 reads like this: under setting [1], 99.6 nM; under setting [2], below 100 nM. Under setting [3], the active entry was “YES”.

As to `COc1ccc(NC(=O)[C@@H](NC(=O)[C@@H]2CCCN2C(=O)CCc2ccccc2)c2ccc(OC)cc2)cc1` [Compound 13], the IC50 is, setting by setting: under setting [1], 151 nM; under setting [2], below 200 nM. Moreover, under setting [3], the active result is “YES”.

Consider `COc1ccc(NC(=O)[C@@H](NC(=O)[C@@H]2CCCN2C(=O)CCc2ccoc2)c2ccc(OC)cc2)cc1` [Compound 14, (S)-1-(3-(furan-3-yl)propanoyl)-N—((S)-1-(4-methoxyphenyl)-2-((4-methoxyphenyl)amino)-2-oxoethyl)pyrrolidine-2-carboxamide], for which the 50% inhibitory concentration (IC50) runs as follows: under setting [1], 147 nM; under setting [2], below 200 nM. For the same compound, the active entry under setting [3] was “YES”.

Regarding `COc1ccc(NC(=O)[C@@H](NC(=O)[C@@H]2CCCN2C(=O)CCC2CCOCC2)c2ccc(OC)cc2)cc1` [Compound 15, (S)—N—((S)-1-(4-methoxyphenyl)-2-((4-methoxyphenyl)amino)-2-oxoethyl)-1-(3-(tetrahydro-2H-pyran-4-yl)propanoyl)pyrrolidine-2-carboxamide], the half-inhibitory concentration (IC50) was 117 nM under setting [1] and below 200 nM under setting [2]. For the same compound, under setting [3], the active result is listed as “YES”.

With `COc1ccc(NC(=O)[C@@H](NC(=O)[C@@H]2CCCN2C(=O)CCc2cccs2)c2ccc(OC)cc2)cc1` [Compound 16, (S)—N—((S)-1-(4-methoxyphenyl)-2-((4-methoxyphenyl)amino)-2-oxoethyl)-1-(3-(thiophen-2-yl)propanoyl)pyrrolidine-2-carboxamide], the half-maximal inhibitory concentration (IC50) runs as follows: under setting [1], 122 nM; under setting [2], below 200 nM. Moreover, the active entry under setting [3] is reported as “YES”.

Turning to `COc1ccc(NC(=O)[C@@H](NC(=O)[C@@H]2CCCN2C(=O)OCc2ccccc2)c2ccccc2)cc1` [Compound 17, benzyl (S)-2-(((S)-2-((4-methoxyphenyl)amino)-2-oxo-1-phenylethyl)carbamoyl)pyrrolidine-1-carboxylate], the IC50 is, setting by setting: under setting [1], 122 nM; under setting [2], below 200 nM. Under setting [3], the active result is on record as “YES”.

Consider `COc1ccc(NC(=O)[C@@H](NC(=O)[C@@H]2CCCN2C(=O)OCc2ccccc2)c2ccc(OC)cc2)cc1` [Compound 18, (S)-benzyl-2-((S)—(4-methoxyphenylcarbamoyl)(4-methoxyphenyl)methylcarbamoyl)pyrrolidine-1-carboxylate], for which the “inhibitory effect in the NO release assay” value (FIG. 9) is “shows an inhibitory effect”. For the same compound, the IC50 reads like this: (0.002 to 20 μM, FIG. 9, read-out: IC50, LPS induced NO production (stereoisomers)) 100 nM; under setting [1], 107 nM; under setting [2], below 200 nM. For the same compound, the active result under setting [3] is “YES”.

Take `COc1ccc(NC(=O)[C@@H](NC(=O)[C@@H]2CCCN2C(=O)CC2CCCCC2)c2ccc(OC)cc2)cc1` [Compound 19, (S)-1-(2-cyclohexylacetyl)-N—((S)-1-(4-methoxyphenyl)-2-((4-methoxyphenyl)amino)-2-oxoethyl)pyrrolidine-2-carboxamide]: the 50% inhibitory concentration (IC50) reads like this: under setting [1], 208 nM; under setting [2], below 1000 nM. Also, the active entry under setting [3] is “YES”.

Regarding `COc1ccc(NC(=O)[C@@H](NC(=O)[C@@H]2CCCN2C(=O)CCC(C)C)c2ccc(OC)cc2)cc1` [Compound 20, (S)—N—((S)-1-(4-methoxyphenyl)-2-((4-methoxyphenyl)amino)-2-oxoethyl)-1-(4-methylpentanoyl)pyrrolidine-2-carboxamide], the IC50 was 203 nM under setting [1] and below 1000 nM under setting [2]. Also, the active entry under setting [3] was “YES”.

As to `COc1ccc(NC(=O)[C@@H](NC(=O)[C@@H]2CCCN2C(=O)CCc2cn(C)c3ccccc23)c2ccc(OC)cc2)cc1` [Compound 21, (S)—N—((S)-1-(4-methoxyphenyl)-2-((4-methoxyphenyl)amino)-2-oxoethyl)-1-(3-(1-methyl-1H-indol-3-yl)propanoyl)pyrrolidine-2-carboxamide], the concentration for half-maximal inhibition (IC50) by setting is: under setting [1], 259 nM; under setting [2], below 1000 nM. The active result under setting [3] was “YES”.
